# Columns and labels:
# Type in all cases: functional
# Homo sapiens [1] = species: Homo sapiens; assay: Mitogen-induced human lymphocyte proliferation measured by incorporation of [3H]thymidine in lymphocytes with Pokeweed mitogen at a concentration of 1/2500 ug with compound at 10 uM
# Homo sapiens [2] = species: Homo sapiens; assay: Mitogen-induced human lymphocyte proliferation measured by incorporation of [3H]-thymidine in lymphocytes with Phytohemagglutininin at a concentration of 0.25 ug with compound at 0.1 uM
# Homo sapiens [3] = species: Homo sapiens; assay: Mitogen-induced human lymphocyte proliferation measured by incorporation of [3H]thymidine in lymphocytes with Pokeweed mitogen at a concentration of 1/2500 ug without compound
# Homo sapiens [4] = species: Homo sapiens; assay: Mitogen-induced human lymphocyte proliferation measured by incorporation of [3H]thymidine in lymphocytes with Pokeweed mitogen at a concentration of 1/2500 ug with compound at 0.1 uM
# Homo sapiens [5] = species: Homo sapiens; assay: Mitogen-induced human lymphocyte proliferation measured by incorporation of [3H]thymidine in lymphocytes with Phytohemagglutininin at a concentration of 0.25 ug with compound at 50 uM
# Homo sapiens [6] = species: Homo sapiens; assay: Mitogen-induced human lymphocyte proliferation measured by incorporation of [3H]thymidine in lymphocytes with Phytohemagglutininin at a concentration of 0.25 ug with compound at 400 uM
# Homo sapiens [7] = species: Homo sapiens; assay: Mitogen-induced human lymphocyte proliferation measured by incorporation of [3H]thymidine in lymphocytes with Phytohemagglutininin at a concentration of 0.125 ug without compound
# Homo sapiens [8] = species: Homo sapiens; assay: Mitogen-induced human lymphocyte proliferation measured by incorporation of [3H]thymidine in lymphocytes with Pokeweed mitogen at a concentration of 1/2500 ug with compound at 50 uM
# Homo sapiens [9] = species: Homo sapiens; assay: Mitogen-induced human lymphocyte proliferation measured by incorporation of [3H]thymidine in lymphocytes with Phytohemagglutininin at a concentration of 0.25 ug with compound at 1 uM
# Homo sapiens [10] = species: Homo sapiens; assay: Mitogen-induced human lymphocyte proliferation measured by incorporation of [3H]thymidine in lymphocytes with Phytohemagglutininin at a concentration of 0.25 ug with compound at 10 uM
# Homo sapiens [11] = species: Homo sapiens; assay: Mitogen-induced human lymphocyte proliferation measured by incorporation of [3H]thymidine in lymphocytes with Concanavalin A (Con A) at a concentration of 0.25 ug with compound at 0.1 uM
# Homo sapiens [12] = species: Homo sapiens; assay: Mitogen-induced human lymphocyte proliferation measured by incorporation of [3H]thymidine in lymphocytes with Concanavalin A at a concentration of 0.25 ug with compound at 400 uM
# Homo sapiens [13] = species: Homo sapiens; assay: Mitogen-induced human lymphocyte proliferation measured by incorporation of [3H]thymidine in lymphocytes with Concanavalin A (Con A) at a concentration of 0.25 ug with compound at 50 uM
# Homo sapiens [14] = species: Homo sapiens; assay: Mitogen-induced human lymphocyte proliferation measured by incorporation of [3H]thymidine in lymphocytes with Concanavalin A (Con A) at a concentration of 0.25 ug with compound at 10 uM
# Homo sapiens [15] = species: Homo sapiens; assay: Mitogen-induced human lymphocyte proliferation measured by incorporation of [3H]thymidine in lymphocytes with Concanavalin A (Con A) at a concentration of 0.25 ug with compound at 1 uM
# Homo sapiens [16] = species: Homo sapiens; assay: Mitogen-induced human lymphocyte proliferation measured by incorporation of [3H]thymidine in lymphocytes with Concanavalin A (Con A) at a concentration of 0.25 ug with out compound
# Homo sapiens [17] = species: Homo sapiens; assay: Mitogen-induced human lymphocyte proliferation measured by incorporation of [3H]thymidine in lymphocytes with Pokeweed mitogen at a concentration of 1/2500 ug with compound at 400 uM
# Homo sapiens [18] = species: Homo sapiens; assay: Mitogen-induced human lymphocyte proliferation measured by incorporation of [3H]thymidine in lymphocytes with Pokeweed mitogen at a concentration of 1/2500 ug with compound at 1 uM.
# Homo sapiens [19] = species: Homo sapiens; assay: Mitogen-induced human lymphocyte proliferation measured by incorporation of [3H]thymidine in lymphocytes with Pokeweed mitogen at a concentration of 1/2500 ug with out compound
# Homo sapiens [20] = species: Homo sapiens; assay: Mitogen-induced human lymphocyte proliferation measured by incorporation of [3H]thymidine in lymphocytes with Phytohemagglutininin at a concentration of 0.125 ug with compound at 1 uM
# Homo sapiens [21] = species: Homo sapiens; assay: Mitogen-induced human lymphocyte proliferation measured by incorporation of [3H]thymidine in lymphocytes with Concanavalin A (Con A) at a concentration of 0.25 microg with compound at 10 uM
# Homo sapiens [22] = species: Homo sapiens; assay: Mitogen-induced human lymphocyte proliferation measured by incorporation of [3H]thymidine in lymphocytes with Phytohemagglutininin at a concentration of 0.125 ug with compound at 0.1 uM
# Homo sapiens [23] = species: Homo sapiens; assay: Mitogen-induced human lymphocyte proliferation measured by incorporation of [3H]thymidine in lymphocytes with Pokeweed mitogen at a concentration of 1/2500 ug with compound at 1 uM
# Homo sapiens [24] = species: Homo sapiens; assay: Mitogen-induced human lymphocyte proliferation measured by incorporation of [3H]-thymidine in lymphocytes with Phytohemagglutininin at a concentration of 0.125 ug with compound at 50 uM
# Homo sapiens [25] = species: Homo sapiens; assay: Mitogen-induced human lymphocyte proliferation measured by incorporation of [3H]thymidine in lymphocytes with Phytohemagglutininin at a concentration of 0.125 ug with compound at 400 uM
# Homo sapiens [26] = species: Homo sapiens; assay: Mitogen-induced human lymphocyte proliferation measured by incorporation of [3H]thymidine in lymphocytes with Phytohemagglutininin at a concentration of 0.125 ug with compound at 10 uM
# Homo sapiens [27] = species: Homo sapiens; assay: Mitogen-induced human lymphocyte proliferation measured by incorporation of [3H]thymidine in lymphocytes with Phytohemagglutininin at a concentration of 0.125 ug with out compound
# Homo sapiens [28] = species: Homo sapiens; assay: Mitogen-induced human lymphocyte proliferation measured by incorporation of [3H]thymidine in lymphocytes with Concanavalin A (Con A) at a concentration of 0.5 ug with compound at 50 uM
# Homo sapiens [29] = species: Homo sapiens; assay: Mitogen-induced human lymphocyte proliferation measured by incorporation of [3H]thymidine in lymphocytes with Concanavalin A (Con A) at a concentration of 0.5 ug with compound at 10 uM
# Homo sapiens [30] = species: Homo sapiens; assay: Mitogen-induced human lymphocyte proliferation measured by incorporation of [3H]thymidine in lymphocytes with Concanavalin A (Con A) at a concentration of 0.5 ug with compound at 0.1 uM
# Homo sapiens [31] = species: Homo sapiens; assay: Mitogen-induced human lymphocyte proliferation measured by incorporation of [3H]thymidine in lymphocytes with Concanavalin A (Con A) at a concentration of 0.5 ug with compound at 1 uM
# Homo sapiens [32] = species: Homo sapiens; assay: Mitogen-induced human lymphocyte proliferation measured by incorporation of [3H]thymidine in lymphocytes with Concanavalin A at a concentration of 0.5 ug with compound at 400 uM
# Homo sapiens [33] = species: Homo sapiens; assay: Mitogen-induced human lymphocyte proliferation measured by incorporation of [3H]thymidine in lymphocytes with Concanavalin A (Con A) at a concentration of 0.5 ug with out compound
# Homo sapiens [34] = species: Homo sapiens; assay: Mitogen-induced human lymphocyte proliferation measured by incorporation of [3H]-thymidine in lymphocytes with Pokeweed mitogen at a concentration of 1/2500 ug with out compound
# Homo sapiens [35] = species: Homo sapiens; assay: Mitogen-induced human lymphocyte proliferation measured by incorporation of [3H]thymidine in lymphocytes with Phytohemagglutininin at a concentration of 0.25 ug with out compound
# Homo sapiens [36] = species: Homo sapiens; assay: Mitogen-induced human lymphocyte proliferation measured by incorporation of [3H]-thymidine in lymphocytes with Pokeweed mitogen at a concentration of 1/2500 ug with compound at 1 uM
# Homo sapiens [37] = species: Homo sapiens; assay: Mitogen-induced human lymphocyte proliferation measured by incorporation of [3H]thymidine in lymphocytes with Pokeweed mitogen at a concentration of 1/5000 ug with out compound
# Homo sapiens [38] = species: Homo sapiens; assay: Mitogen-induced human lymphocyte proliferation measured by incorporation of [3H]thymidine in lymphocytes with Pokeweed mitogen at a concentration of 1/5000 ug with compound at 1 uM
# Homo sapiens [39] = species: Homo sapiens; assay: Mitogen-induced human lymphocyte proliferation measured by incorporation of [3H]thymidine in lymphocytes with Pokeweed mitogen at a concentration of 1/5000 ug with compound at 10 uM
# Homo sapiens [40] = species: Homo sapiens; assay: Mitogen-induced human lymphocyte proliferation measured by incorporation of [3H]-thymidine in lymphocytes with Pokeweed mitogen at a concentration of 1/5000 ug with compound at 50 uM
# Homo sapiens [41] = species: Homo sapiens; assay: Mitogen-induced human lymphocyte proliferation measured by incorporation of [3H]thymidine in lymphocytes with Phytohemagglutininin at a concentration of 0.125 ug with compound at 50 uM
# Homo sapiens [42] = species: Homo sapiens; assay: Mitogen-induced human lymphocyte proliferation measured by incorporation of [3H]thymidine in lymphocytes with Phytohemagglutininin at a concentration of 0.25 ug with compound at 0.1 uM
# Homo sapiens [43] = species: Homo sapiens; assay: Mitogen-induced human lymphocyte proliferation measured by incorporation of [3H]thymidine in lymphocytes with Pokeweed mitogen at a concentration of 1/5000 ug with compound at 0.1 uM
# Homo sapiens [44] = species: Homo sapiens; assay: Mitogen-induced human lymphocyte proliferation measured by incorporation of [3H]thymidine in lymphocytes with Pokeweed mitogen at a concentration of 1/5000 ug with compound at 400 uM
Structure (SMILES),Incorporation (Homo sapiens [1]),Incorporation (Homo sapiens [4]),Incorporation (Homo sapiens [5]),Incorporation (Homo sapiens [6]),Incorporation (Homo sapiens [8]),Incorporation (Homo sapiens [9]),Incorporation (Homo sapiens [10]),Incorporation (Homo sapiens [11]),Incorporation (Homo sapiens [12]),Incorporation (Homo sapiens [13]),Incorporation (Homo sapiens [15]),Incorporation (Homo sapiens [16]),Incorporation (Homo sapiens [17]),Incorporation (Homo sapiens [20]),Incorporation (Homo sapiens [22]),Incorporation (Homo sapiens [23]),Incorporation (Homo sapiens [25]),Incorporation (Homo sapiens [26]),Incorporation (Homo sapiens [27]),Incorporation (Homo sapiens [34]),further results
Nc1nc2c(c(C(=O)O)nn2C2O[C@H](CO)[C@@H](O)[C@H]2O)c(=O)[nH]1 (some centres not stated),36867,35813,31662,29655,34808,28393,32955,20186,22619,22446,21319,21143,34537,–,–,–,–,–,–,–,Incorporation (Homo sapiens [2]): 25106; Incorporation (Homo sapiens [3]): 35867; Incorporation (Homo sapiens [7]): 28436; Incorporation (Homo sapiens [14]): 27385; Incorporation (Homo sapiens [18]): 39189
NC(=O)[C@H](Cc1ccccc1)NC(=O)c1nn(C2O[C@H](CO)[C@@H](O)[C@H]2O)c2nc(N)[nH]c(=O)c12 (some centres not stated),44634,39180,–,–,40511,–,–,24317,30812,27642,26510,27326,37204,35042,26149,41073,42771,54960,38473,–,Incorporation (Homo sapiens [19]): 31047; Incorporation (Homo sapiens [21]): 29989; Incorporation (Homo sapiens [24]): 53121
NC(=O)CNC(=O)c1nn(C2O[C@H](CO)[C@@H](O)[C@H]2O)c2nc(N)[nH]c(=O)c12 (some centres not stated),44370,44670,–,–,39719,–,–,–,–,–,–,–,40023,32413,27956,42288,66017,47343,35075,39468,Incorporation (Homo sapiens [28]): 44360; Incorporation (Homo sapiens [29]): 46662; Incorporation (Homo sapiens [24]): 50056; Incorporation (Homo sapiens [30]): 43954; Incorporation (Homo sapiens [31]): 40503; Incorporation (Homo sapiens [32]): 43649; Incorporation (Homo sapiens [33]): 43401
NC(=O)CC[C@H](NC(=O)c1nn(C2O[C@H](CO)[C@@H](O)[C@H]2O)c2nc(N)[nH]c(=O)c12)C(N)=O (some centres not stated),45049,46067,43877,39824,44234,50331,48588,26181,24167,28119,30068,25758,29854,–,–,–,–,–,–,40326,Incorporation (Homo sapiens [35]): 57799; Incorporation (Homo sapiens [2]): 49448; Incorporation (Homo sapiens [14]): 31799; Incorporation (Homo sapiens [36]): 39260
N=C(N)NCCC[C@H](NC(=O)[C@H](Cc1ccccc1)NC(=O)c1nn(C2O[C@H](CO)[C@@H](O)[C@H]2O)c2nc(N)[nH]c(=O)c12)C(N)=O (some centres not stated),18784,17344,37174,33862,19755,46087,36688,–,–,–,–,–,18394,19743,22401,18470,26854,36645,23120,15723,Incorporation (Homo sapiens [35]): 35768; Incorporation (Homo sapiens [37]): 7043; Incorporation (Homo sapiens [28]): 36977; Incorporation (Homo sapiens [38]): 8437; Incorporation (Homo sapiens [39]): 8734; Incorporation (Homo sapiens [29]): 41908; Incorporation (Homo sapiens [40]): 9960; Incorporation (Homo sapiens [41]): 21841; Incorporation (Homo sapiens [42]): 38673; Incorporation (Homo sapiens [30]): 43850; Incorporation (Homo sapiens [43]): 11906; Incorporation (Homo sapiens [31]): 36088; Incorporation (Homo sapiens [32]): 30792; Incorporation (Homo sapiens [44]): 8214; Incorporation (Homo sapiens [33]): 35226

# — ChEMBL document CHEMBL1124696, “Nucleoside peptides. 10. Synthesis and T-cell immunostimulatory properties of certain peptide derivatives of 6-azacadeguomycin” (1989)
